Assay: xn = mol fraction of the nth substance listed

CC(=O)[O-].CCC[N+]1(C)CCCC1 + CC#N
298 K, 101 kPa
Conditions | electrical conductivity [S/m]
x2 = 0.75 | 3.18
x2 = 0.775 | 3.51
x2 = 0.799 | 3.72
x2 = 0.825 | 3.86
x2 = 0.849 | 3.9
x2 = 0.875 | 3.92
x2 = 0.9 | 3.85
x2 = 0.911 | 3.75
x2 = 0.921 | 3.63
x2 = 0.94 | 3.35

CC(O)C(=O)[O-].CCC[N+]1(C)CCCC1 + CC#N
298 K, 101 kPa
Conditions | electrical conductivity [S/m]
x2 = 0.724 | 2.67
x2 = 0.749 | 2.89
x2 = 0.801 | 3.19
x2 = 0.825 | 3.33
x2 = 0.849 | 3.54
x2 = 0.873 | 3.56
x2 = 0.898 | 3.5
x2 = 0.91 | 3.5
x2 = 0.921 | 3.37
x2 = 0.929 | 3.24

CC(O)C(=O)[O-].CCC[N+]1(C)CCCCC1 + CC#N
298 K, 101 kPa
Conditions | electrical conductivity [S/m]
x2 = 0.77 | 2.16
x2 = 0.823 | 2.56
x2 = 0.832 | 2.64
x2 = 0.838 | 2.76
x2 = 0.846 | 2.85
x2 = 0.851 | 2.85
x2 = 0.859 | 2.88
x2 = 0.863 | 2.92
x2 = 0.869 | 2.97
x2 = 0.872 | 2.98
x2 = 0.877 | 2.98
x2 = 0.881 | 3.01
x2 = 0.885 | 3.03
x2 = 0.888 | 3.06
x2 = 0.891 | 3.04
x2 = 0.893 | 3.06
x2 = 0.897 | 3.09
x2 = 0.9 | 3.09
x2 = 0.907 | 3.09
x2 = 0.909 | 3.09
x2 = 0.92 | 3.04
x2 = 0.933 | 2.92
x2 = 0.952 | 2.68

CC[n+]1ccn(C)c1.F[B-](F)(F)F + CC#N
Conditions | viscosity [mPa·s]
293.15 K, 100 kPa, x2 = 0.1787 | 25.2
298.15 K, 100 kPa, x2 = 0.8301 | 1.14
303.15 K, 101 kPa, x1 = 0.0999 | 0.71
303.15 K, 101 kPa, x1 = 0.2 | 1.31
303.15 K, 101 kPa, x1 = 0.2977 | 2.18
303.15 K, 101 kPa, x1 = 0.3999 | 3.51
303.15 K, 101 kPa, x1 = 0.4999 | 5.29
303.15 K, 101 kPa, x1 = 0.5991 | 7.84
303.15 K, 101 kPa, x1 = 0.7013 | 11
303.15 K, 101 kPa, x1 = 0.8003 | 15.3
303.15 K, 101 kPa, x1 = 0.9009 | 21
303.15 K, 101 kPa, x1 = 1 | 28
313.15 K, 100 kPa, x2 = 0.2803 | 10.5
313.15 K, 100 kPa, x2 = 0.3682 | 7.5
313.15 K, 101 kPa, x1 = 0.0999 | 0.638
313.15 K, 101 kPa, x1 = 0.2 | 1.15
313.15 K, 101 kPa, x1 = 0.2977 | 1.89
313.15 K, 101 kPa, x1 = 0.3999 | 2.95
313.15 K, 101 kPa, x1 = 0.4999 | 4.34
313.15 K, 101 kPa, x1 = 0.5991 | 6.21
313.15 K, 101 kPa, x1 = 0.7013 | 8.64
313.15 K, 101 kPa, x1 = 0.8003 | 11.7
313.15 K, 101 kPa, x1 = 0.9009 | 15.6
313.15 K, 101 kPa, x1 = 1 | 20.4
323.15 K, 100 kPa, x2 = 0 | 18.6
323.15 K, 100 kPa, x2 = 0.2803 | 8.36
323.15 K, 100 kPa, x2 = 0.3682 | 6.1
323.15 K, 100 kPa, x2 = 0.7116 | 1.6
323.15 K, 101 kPa, x1 = 0.0999 | 0.575
323.15 K, 101 kPa, x1 = 0.2 | 1.02
323.15 K, 101 kPa, x1 = 0.2977 | 1.67
323.15 K, 101 kPa, x1 = 0.3999 | 2.52
323.15 K, 101 kPa, x1 = 0.4999 | 3.64
323.15 K, 101 kPa, x1 = 0.5991 | 5.11
323.15 K, 101 kPa, x1 = 0.7013 | 6.95
323.15 K, 101 kPa, x1 = 0.8003 | 9.17
323.15 K, 101 kPa, x1 = 0.9009 | 12
323.15 K, 101 kPa, x1 = 1 | 15.3
333.15 K, 100 kPa, x2 = 0.2803 | 6.82
333.15 K, 100 kPa, x2 = 0.7116 | 1.41
333.15 K, 101 kPa, x1 = 0.0999 | 0.522
333.15 K, 101 kPa, x1 = 0.2 | 0.917
333.15 K, 101 kPa, x1 = 0.2977 | 1.48
333.15 K, 101 kPa, x1 = 0.3999 | 2.2
333.15 K, 101 kPa, x1 = 0.4999 | 3.13
333.15 K, 101 kPa, x1 = 0.5991 | 4.34
333.15 K, 101 kPa, x1 = 0.7013 | 5.76
333.15 K, 101 kPa, x1 = 0.8003 | 7.47
333.15 K, 101 kPa, x1 = 0.9009 | 9.51
333.15 K, 101 kPa, x1 = 1 | 12.1
343.15 K, 100 kPa, x2 = 0.3682 | 4.28
343.15 K, 100 kPa, x2 = 0.7116 | 1.26
343.15 K, 100 kPa, x2 = 0.8301 | 0.719

CC(=O)Oc1ccccc1C(=O)O + CC#N + CCCCCC[n+]1ccn(C)c1.[Br-]
viscosity [mPa·s], 101 kPa
Conditions | 288.15 K | 298.15 K | 308.15 K | 318.15 K
x1 = 0.001647, x3 = 0 | 0.394 | 0.349 | 0.316 | 0.292
x1 = 0.001682, x3 = 0.004167 | 0.408 | 0.37 | 0.336 | 0.309
x1 = 0.001814, x3 = 0.0117 | 0.434 | 0.393 | 0.372 | 0.343
x1 = 0.001864, x3 = 0.008116 | 0.431 | 0.388 | 0.353 | 0.324
x1 = 0.00335, x3 = 0.00416 | 0.412 | 0.373 | 0.34 | 0.313
x1 = 0.003412, x3 = 0 | 0.398 | 0.353 | 0.319 | 0.295
x1 = 0.003448, x3 = 0.01168 | 0.437 | 0.396 | 0.376 | 0.346
x1 = 0.003521, x3 = 0.008102 | 0.435 | 0.391 | 0.356 | 0.327
x1 = 0.004495, x3 = 0 | 0.402 | 0.355 | 0.322 | 0.297
x1 = 0.004647, x3 = 0.004154 | 0.416 | 0.376 | 0.343 | 0.315
x1 = 0.004832, x3 = 0.01167 | 0.441 | 0.399 | 0.38 | 0.349
x1 = 0.004834, x3 = 0.008092 | 0.438 | 0.395 | 0.359 | 0.33
x1 = 0.00569, x3 = 0 | 0.405 | 0.358 | 0.325 | 0.3
x1 = 0.005813, x3 = 0.004149 | 0.42 | 0.38 | 0.346 | 0.317
x1 = 0.005963, x3 = 0.008083 | 0.441 | 0.398 | 0.363 | 0.333
x1 = 0.006109, x3 = 0.01165 | 0.444 | 0.402 | 0.383 | 0.352
x1 = 0.006963, x3 = 0 | 0.408 | 0.362 | 0.328 | 0.303
x1 = 0.007083, x3 = 0.004144 | 0.423 | 0.383 | 0.349 | 0.32
x1 = 0.007249, x3 = 0.008072 | 0.444 | 0.401 | 0.366 | 0.335
x1 = 0.007314, x3 = 0.01164 | 0.448 | 0.406 | 0.386 | 0.355
x1 = 0.00845, x3 = 0 | 0.412 | 0.365 | 0.331 | 0.306
x1 = 0.008753, x3 = 0.004137 | 0.428 | 0.387 | 0.354 | 0.324
x1 = 0.008914, x3 = 0.008059 | 0.448 | 0.405 | 0.369 | 0.339
x1 = 0.00934, x2 = 0.979 | 0.452 | 0.41 | 0.39 | 0.359
x1 = 0.009969, x3 = 0 | 0.416 | 0.369 | 0.334 | 0.309
x1 = 0.009979, x3 = 0.004132 | 0.432 | 0.39 | 0.356 | 0.327
x1 = 0.01021, x2 = 0.9782 | 0.455 | 0.412 | 0.392 | 0.361
x1 = 0.01031, x3 = 0.008047 | 0.451 | 0.408 | 0.372 | 0.342
x1 = 0.01098, x3 = 0 | 0.419 | 0.371 | 0.337 | 0.311
x1 = 0.01114, x3 = 0.004127 | 0.436 | 0.393 | 0.359 | 0.33
x1 = 0.01158, x3 = 0.008037 | 0.454 | 0.411 | 0.375 | 0.345
x1 = 0.01173, x2 = 0.9767 | 0.458 | 0.416 | 0.396 | 0.364
x1 = 0.01219, x3 = 0 | 0.422 | 0.375 | 0.34 | 0.314
x1 = 0.0126, x3 = 0.004121 | 0.44 | 0.396 | 0.362 | 0.333
x1 = 0.01261, x2 = 0.9794 | 0.458 | 0.414 | 0.378 | 0.348
x1 = 0.01337, x2 = 0.9751 | 0.462 | 0.42 | 0.4 | 0.368

CC[n+]1ccn(C)c1.F[B-](F)(F)F + CC(=O)N(C)C
Conditions | electrical conductivity [S/m] | viscosity [mPa·s]
283.15 K, 100 kPa, x1 = 0.0006798 | 0.03925 | –
288.15 K, 100 kPa, x1 = 0.001378 | 0.07985 | –
298.15 K, 100 kPa, x1 = 0.0004953 | 0.03615 | –
303.15 K, 101 kPa, x2 = 0 | – | 28
303.15 K, 101 kPa, x2 = 0.1998 | – | 18.05
303.15 K, 101 kPa, x2 = 0.6 | – | 5.678
303.15 K, 101 kPa, x2 = 0.6996 | – | 3.833
303.15 K, 101 kPa, x2 = 0.8001 | – | 2.499
313.15 K, 100 kPa, x1 = 0.0006798 | 0.05765 | –
313.15 K, 101 kPa, x2 = 0.5005 | – | 6.172
313.15 K, 101 kPa, x2 = 0.6 | – | 4.493
323.15 K, 101 kPa, x2 = 0 | – | 15.35
323.15 K, 101 kPa, x2 = 0.2995 | – | 8.36
333.15 K, 101 kPa, x2 = 0.2995 | – | 6.91
333.15 K, 101 kPa, x2 = 0.3989 | – | 5.375

OC[C@@H](O)[C@@H](O)[C@H](O)[C@@H](O)CO + CC(=O)[O-].CC[n+]1ccn(C)c1
303.15 K, 100 kPa
Conditions | viscosity [mPa·s]
x1 = 0.1894 | 283
x1 = 0.5836 | 2256

From the CheMixHub ionic liquid set
